Assay results taken from patent US20240294545A1 (CSPC Zhongqi Pharmaceutical Technology (Shijiazhuang) Co., …, priority 2020, published 2024).
pIC50: −log10 of the molar value. Marks after values point to notes of the source that are not given here.

Legend:
ATM-phosphorylated KAP1 = test: Intracellular ATM-phosphorylated KAP1 level, ICW assay in MCF7 cells; type: cell-based, Human; conditions: Homo sapiens, light or radiation study; MCF7 cells, 2 h compound, 10 Gy irradiation, further 1 h; read-out: pKAP1 IC50
[1] = test system: intracranial murine glioma GL-261-Luc; test: Intracranial murine glioma GL-261-Luc model, combined with radiotherapy; type: in vivo, C57BL/6 mice; conditions: for D17 BLI / D 17 TGI: compound 10 mg/kg intragastric qd × 5 + IR 2 Gy; for D17 BLI: day 17; for D 17 TGI: day 17, from bioluminescence
Protocol: 8 Efficacy Test of the Compounds of the Present Disclosure Combined with Radiotherapy in the Intracranial Murine Glioma GL-261-Luc Model
8.1 Experimental Animals: C57BL/6 Mice, SPF, Female, 19 to 22 g.
GL-261-Luc tumor cells, DMEM medium:fetal bovine serum=90%:10%, accompanied by adding […] L-Glu, 37° C., 5% CO2.
Female C57BL/6 mice were anesthetized with Shutai 50 (60 mg/mL) and thiazine (1.5 mg/mL). Buprenorphine (0.1 mg/kg) was injected subcutaneously 30 min before operation and 6 h after operation to relieve pain. The operation area was disinfected with 70% ethanol solution. A sagittal incision was made on the parietal-occipital bone of anesthetized mice with a sterile scalpel, after cleaning the exposed skull surface with 3% hydrogen peroxide solution, tumor cells were injected. After injection, the skull was cleaned with 3% hydrogen peroxide solution, dried with a sterile dry cotton swab, and the incision was sutured. The state of mice was examined continuously to ensure that mice fully recovered from anesthesia.
The inoculated mice were weighed and intraperitoneally injected with […] (150 mg/kg). After 10 min injection, the animals were anesthetized with a mixture of oxygen and isoflurane. When the animal was completely anesthetized, it was moved into the imaging room for bioluminescence detection. The bioluminescence signal of the whole animal was measured and recorded for the image.
Bioluminescence detection was performed on the second day after operation, and the tumor-bearing mice were randomly divided into groups according to the intensity of bioluminescence. The specific groups were as follows. The administration route was intragastric administration and then JR 1 h after administration.
After grouping, bioluminescence detection was performed 1 to 2 times a week, according to the bioluminescence data, tumor growth inhibitory rate was calculated as follows: TGI (%)=[1−(Ti−T0)/(Vi−V0)]×100, wherein Ti represents the mean bioluminescence data of a given treatment group on a certain day; T0 represents the mean bioluminescence data of this treatment group at the beginning of administration; Vi represents the mean bioluminescence data of the vehicle control group on a certain day (the same day as that in Ti); V0 represents the mean bioluminescence data of the vehicle control group at the beginning of administration.

| SMILES | pIC50 (ATM-phosphorylated KAP1) | D17 BLI [1] | D 17 TGI [1] [%] | anti-tumor activity, in words ([1]; combined with radiotherapy, compared with AZD1390) |
| --- | --- | --- | --- | --- |
| CC(C)n1c(=O)n(C)c2cnc3cc(F)c(-c4ccc(OCCCN5CCCCC5)nc4)cc3c21 [AZD1390, reference compound] | 9.35 | 4.90*** LOG10 | 124.08 | – |
| Cn1c(=O)n2c3c4c(c(-c5ccc(OCCCN6CCCCC6)nc5)c(F)cc4ncc31)NCC2(C)C [Example A-193, 6-fluoro-2,10,10-trimethyl-7-(6-(3-(piperidin-1-yl)propoxy)pyridin-3-yl)-2,8,9,10-tetrahydro-1H-2,4,8,10a-tetraazanaphtho[2,1,8-cde]azulen-1(2H)-one] | 8.76 | 4.94*** LOG10 | 122.49 | equivalent to that of AZD1390 |
